How the values were obtained:
[1] = tested on: mouse models with middle cerebral artery occlusion; experiment: Mouse models with middle cerebral artery occlusion (MCAO, 2 h) and reperfusion: neurological symptoms, cerebral infarction size and volume; type: in vivo; settings: for Distribution of neurological scores: score 0 (number of mice) / Distribution of neurological scores: score 1 (number of mice) / Distribution of neurological scores: score 2 (number of mice) / Distribution of neurological scores: score 3 (number of mice) / Neurological scores Mean ± SEM: scored 22 hours after reperfusion, n = 9; for Neurological scores Mean ± SEM: score 0-3
Excerpt: Mouse models with acute ischemic stroke, namely, mouse models with middle cerebral artery occlusion were used as evaluation systems. The experiment consists of three experiments, i.e., Experiment 1 to evaluate the therapeutic efficacy of fidarestat (control group and fidarestat administration group), Experiment 2 to evaluate the protective effect of fidarestat (control group and fidarestat administration group), and Experiment 3 to evaluate the role of AR (wild-type mouse group and AR gene-deficient mouse group).
Used mice (C57BL/6J line, 22 to 28 g of body weight) were subjected to right middle cerebral artery occlusion (MCAO) by the filament method under gas anesthesia over 2 hours. Thereafter, anesthesia was terminated and the mice were kept in an intensive care system (ThermoCare, Inc) at 32° C. for 4 to 6 hours. The neurological symptoms, the cerebral infarction size, and the cerebral infarction volume were used as endpoints.
The evaluation of the neurological symptoms was determined 22 hours after reperfusion based on the following four scores:
0: no neurological deficit (normal); 1: stretching of the opposite forefoot (mild); 2: contra lateral circling (moderate); and 3: loss of walking and righting reflex (severe).
Evaluations of the cerebral infarction size and the cerebral infarction volume were performed as follows. After the evaluation of the neurological symptoms, the mouse brains were removed immediately and cut into 6 coronary slices with a thickness of 2 mm. In order to discover the sites of infarction, the slices were stained with 2% triphenyltetrazolium chloride (TTC) in a darkroom for 15 minutes and then fixed in 10% formalin buffer overnight. The posterior surface of each brain slice was photographed and analyzed using a digital image analyzing system (NeuroLucida, MicroBrightfield Inc.) The cerebral infarction size and the cerebral infarction volume (%) were calculated by an indirect method.
In Experiment 1 to evaluate the therapeutic efficacy of fidarestat, fidarestat was administered to the mice at 2 mg/kg 15 minutes before reperfusion. In Experiment 2 to evaluate the protective effect of fidarestat, fidarestat was administered to the mice at 10 mg/kg 30 minutes before occlusion. Only solvent was administered to the control group. In each case, forced intragastric administration was carried out.

[2] = as reported in Hatsumei Kyokai Kokai Giho No. 2006-500058; cited from earlier work
[3] = Experiment 1 (therapeutic efficacy): 2 mg/kg intragastric 15 minutes before reperfusion
[4] = Experiment 2 (protective effect): 10 mg/kg intragastric 30 minutes before occlusion

NC(=O)[C@@H]1C[C@]2(NC(=O)NC2=O)c2cc(F)ccc2O1 [Fidarestat, (2S,4S)-6-fluoro-2′,5′-dioxospiro[chroman-4,4′-imidazolidine]-2-carboxamide]
Cerebral infarction size observed after ischemic reperfusion ([1]; Experiment 1 (therapeutic efficacy): 2 mg/kg 15 minutes before reperfusion, FIG. 1, brain slice Nos. 3 and 4): significantly reduced | Cerebral infarction volume ([1]; Experiment 1 (therapeutic efficacy): 2 mg/kg 15 minutes before reperfusion, FIG. 4): the same result was also obtained | (Dead) number of mice [1, 3]: (n = 2) | Distribution of neurological scores: score 0 (number of mice) [1, 3]: 0 | Distribution of neurological scores: score 1 (number of mice) [1, 3]: 7 | Distribution of neurological scores: score 2 (number of mice) [1, 3]: 2 | Distribution of neurological scores: score 3 (number of mice) [1, 3]: 0 | Neurological scores Mean ± SEM ([1]; Experiment 1 (therapeutic efficacy): 2 mg/kg intragastric 15 minutes before reperfusion, P < 0.02 vs vehicle): 1.22 ± 0.15 | Cerebral infarction size observed after ischemic reperfusion ([1]; Experiment 2 (protective effect): 10 mg/kg 30 minutes before occlusion, FIG. 2, brain slice Nos. 3 and 4): significantly reduced | Cerebral infarction volume ([1]; Experiment 2 (protective effect): 10 mg/kg 30 minutes before occlusion, FIG. 5): the same result was also obtained | Distribution of neurological scores: score 0 (number of mice) [1, 4]: 0 | Distribution of neurological scores: score 1 (number of mice) [1, 4]: 7 | Distribution of neurological scores: score 2 (number of mice) [1, 4]: 2 | Distribution of neurological scores: score 3 (number of mice) [1, 4]: 0 | Neurological scores Mean ± SEM ([1]; Experiment 2 (protective effect): 10 mg/kg intragastric 30 minutes before occlusion, P < 0.05 vs vehicle): 1.22 ± 0.14 | Effect on the worsening of the neurological symptoms observed after ischemic reperfusion ([1]; Experiments 1 and 2 (2 mg/kg 15 minutes before reperfusion; 10 mg/kg 30 minutes before occlusion)): significant effect | Pharmacological effect on the blood coagulation system and the circulatory system [2]: no pharmacological effect

From US20090076105A1, “PREVENTIVE OR THERAPEUTIC AGENT FOR CEREBRAL ISCHEMIC INJURY OR CEREBRAL ISCHEMIA REPERFUSION IN STROKE” (SANWA KAGAKU KENKYUSHO CO., LTD., priority 2006, published 2009)
